Test results as given in the NIST ThermoML archive (doi:10.1021/je034189g).
Numbers after ± are expanded uncertainties.

Conditions: Liquid; Ebulliometric method (Recirculating still)

SMILES | Normal boiling temperature
c1ccccc1 [benzene] | 80.01 ± 0.15 °C
C1CCCCC1 [cyclohexane] | 80.63 ± 0.15 °C
COc1ccccc1 [anisole] | 153.62 ± 0.15 °C
CCCCCO [pentan-1-ol] | 137.63 ± 0.15 °C
